Experiment [1] has as its target Tissue-type plasminogen activator (Homo sapiens, UniProt P00750). The experiment can be described thus: Binding affinity against tissue plasminogen activator (t-Pa).
The target of another experiment is Prothrombin (Homo sapiens, UniProt P00734). The experiment can be described thus: Binding affinity against thrombin.
For experiment [2], the target named is Vitamin K-dependent protein C (Homo sapiens, UniProt P04070). The experiment is described as follows: Binding affinity against activated protein C (APC).
Sequence of Vitamin K-dependent protein C (P04070 43-197 limits assumed): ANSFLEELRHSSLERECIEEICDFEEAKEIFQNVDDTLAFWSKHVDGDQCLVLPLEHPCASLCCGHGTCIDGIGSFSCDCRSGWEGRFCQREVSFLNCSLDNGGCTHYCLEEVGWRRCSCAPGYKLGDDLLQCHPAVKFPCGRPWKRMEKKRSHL
Sequence of Vitamin K-dependent protein C (P04070 212-461 limits assumed): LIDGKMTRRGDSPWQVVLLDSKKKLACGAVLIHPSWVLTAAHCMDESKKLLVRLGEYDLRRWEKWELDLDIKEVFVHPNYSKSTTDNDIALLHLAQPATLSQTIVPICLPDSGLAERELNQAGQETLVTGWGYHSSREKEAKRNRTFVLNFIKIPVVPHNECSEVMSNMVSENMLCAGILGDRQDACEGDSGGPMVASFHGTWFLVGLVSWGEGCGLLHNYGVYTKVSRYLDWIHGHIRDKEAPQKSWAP
A further experiment addresses Serine protease 1 (Homo sapiens, UniProt P07477). The experiment is described as follows: Binding affinity against trypsin.
For experiment [3], the target named is T1, Coagulation factor X (Homo sapiens, UniProt P00742). The experiment can be described thus: Binding affinity against serine protease factor Xa (fXa).
T1 sequence (P00742 41-179 limits assumed): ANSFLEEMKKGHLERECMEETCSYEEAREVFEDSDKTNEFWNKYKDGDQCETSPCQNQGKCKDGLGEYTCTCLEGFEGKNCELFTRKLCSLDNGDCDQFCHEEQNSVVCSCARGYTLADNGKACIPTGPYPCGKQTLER
T1 sequence (P00742 235-488 limits assumed): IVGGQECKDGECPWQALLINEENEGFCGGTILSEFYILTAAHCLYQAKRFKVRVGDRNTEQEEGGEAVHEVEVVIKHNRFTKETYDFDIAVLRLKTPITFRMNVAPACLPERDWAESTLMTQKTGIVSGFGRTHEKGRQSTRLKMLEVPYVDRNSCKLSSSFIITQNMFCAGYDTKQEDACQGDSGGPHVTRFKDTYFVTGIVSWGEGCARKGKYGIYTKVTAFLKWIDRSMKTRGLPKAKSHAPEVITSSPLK
The target of a further experiment is Plasminogen (Homo sapiens, UniProt P00747). The experiment can be described thus: Binding affinity against plasmin.
Sequence of Plasminogen (P00747 97-580 limits assumed): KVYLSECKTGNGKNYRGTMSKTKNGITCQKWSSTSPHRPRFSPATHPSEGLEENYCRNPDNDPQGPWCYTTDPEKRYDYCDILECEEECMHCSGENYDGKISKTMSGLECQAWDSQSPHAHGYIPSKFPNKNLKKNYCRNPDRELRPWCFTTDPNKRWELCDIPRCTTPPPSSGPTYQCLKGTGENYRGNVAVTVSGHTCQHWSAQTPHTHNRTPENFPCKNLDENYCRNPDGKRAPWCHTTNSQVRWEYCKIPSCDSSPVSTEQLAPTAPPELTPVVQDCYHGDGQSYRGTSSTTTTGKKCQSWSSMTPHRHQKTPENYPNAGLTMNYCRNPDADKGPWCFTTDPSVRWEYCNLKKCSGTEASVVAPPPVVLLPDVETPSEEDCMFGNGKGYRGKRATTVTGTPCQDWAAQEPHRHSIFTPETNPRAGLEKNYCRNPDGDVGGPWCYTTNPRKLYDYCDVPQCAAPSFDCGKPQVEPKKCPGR
Sequence of Plasminogen (P00747 581-810 limits assumed): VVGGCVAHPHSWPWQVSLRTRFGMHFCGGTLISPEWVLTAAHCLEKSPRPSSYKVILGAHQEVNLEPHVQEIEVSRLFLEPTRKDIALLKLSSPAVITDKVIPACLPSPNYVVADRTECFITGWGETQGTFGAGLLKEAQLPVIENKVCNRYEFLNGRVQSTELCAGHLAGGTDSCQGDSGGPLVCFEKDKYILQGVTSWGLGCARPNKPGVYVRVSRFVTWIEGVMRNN
The target in experiment [4] is T1, Coagulation factor X. The experiment is described as follows: Binding affinity against serine protease Coagulation factor X.
Experiment [5] has as its target Coagulation factor X (Rattus norvegicus) (UniProt Q63207). The experiment is described as follows: Inhibitory activity against factor Xa in rat plasma.

Bounds are passed on as bounds.

Sequence of Tissue-type plasminogen activator (P00750 whole entry): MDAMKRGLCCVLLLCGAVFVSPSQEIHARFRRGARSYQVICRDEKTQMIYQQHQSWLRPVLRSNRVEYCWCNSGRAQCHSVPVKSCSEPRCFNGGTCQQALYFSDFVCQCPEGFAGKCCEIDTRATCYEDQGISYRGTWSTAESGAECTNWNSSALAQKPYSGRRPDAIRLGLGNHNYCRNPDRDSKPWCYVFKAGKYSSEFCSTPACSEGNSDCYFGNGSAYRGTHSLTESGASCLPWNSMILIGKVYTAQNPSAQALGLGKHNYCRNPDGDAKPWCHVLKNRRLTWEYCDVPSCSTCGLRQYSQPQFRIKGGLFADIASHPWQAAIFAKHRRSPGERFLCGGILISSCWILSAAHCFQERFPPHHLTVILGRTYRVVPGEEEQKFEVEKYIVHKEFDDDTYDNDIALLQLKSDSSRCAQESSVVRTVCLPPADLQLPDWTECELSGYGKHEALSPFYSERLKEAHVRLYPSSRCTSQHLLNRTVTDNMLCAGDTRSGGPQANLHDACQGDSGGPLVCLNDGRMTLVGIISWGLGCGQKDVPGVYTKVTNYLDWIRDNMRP
Sequence of Serine protease 1 (P07477 whole entry): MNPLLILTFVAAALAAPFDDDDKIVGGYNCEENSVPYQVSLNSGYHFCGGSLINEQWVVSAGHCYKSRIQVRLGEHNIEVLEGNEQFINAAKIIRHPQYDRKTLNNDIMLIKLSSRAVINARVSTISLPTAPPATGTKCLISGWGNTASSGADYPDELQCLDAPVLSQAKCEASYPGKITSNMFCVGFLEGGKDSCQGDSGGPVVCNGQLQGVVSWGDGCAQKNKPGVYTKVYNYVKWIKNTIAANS
Sequence of Coagulation factor X (Rattus norvegicus) (Q63207 whole entry, looked up): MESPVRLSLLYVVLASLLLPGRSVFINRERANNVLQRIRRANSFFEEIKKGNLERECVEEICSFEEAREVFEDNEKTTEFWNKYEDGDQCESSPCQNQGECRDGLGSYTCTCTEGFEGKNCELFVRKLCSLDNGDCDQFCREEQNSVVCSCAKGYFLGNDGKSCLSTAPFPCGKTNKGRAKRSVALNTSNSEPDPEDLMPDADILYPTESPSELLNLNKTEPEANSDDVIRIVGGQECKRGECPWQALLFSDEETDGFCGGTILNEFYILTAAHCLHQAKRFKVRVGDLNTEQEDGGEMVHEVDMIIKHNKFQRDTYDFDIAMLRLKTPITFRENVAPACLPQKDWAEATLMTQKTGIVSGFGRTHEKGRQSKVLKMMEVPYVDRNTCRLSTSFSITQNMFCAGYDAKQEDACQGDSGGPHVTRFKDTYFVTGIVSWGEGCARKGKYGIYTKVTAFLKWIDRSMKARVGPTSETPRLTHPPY

`N=C(N)c1ccc(O)c(CN2CC[C@H](NS(=O)(=O)c3cc4cnccc4s3)C2=O)c1`: the Ki is 8700 nM in experiment [1]; 2600 nM at Prothrombin; more than 18000 nM in experiment [2]; more than 2900 nM at Serine protease 1; 3 nM at Coagulation factor X [3]; more than 7300 nM on Plasminogen.

With `N=C(N)c1cccc(CN2CC[C@H](NS(=O)(=O)c3ccc4cccnc4c3)C2=O)c1`, the figures for the Ki on Coagulation factor X [4], on Prothrombin and on Serine protease 1 were 420 nM, more than 4000 nM and more than 2900 nM, respectively.

Consider `N=C(N)c1cccc(CN2CC[C@H](NS(=O)(=O)c3ccc4c(N)nccc4c3)C2=O)c1`, for which the Ki was 90 nM on Coagulation factor X [4], more than 4000 nM on Prothrombin and more than 2900 nM at Serine protease 1.

For `N=C(N)c1cccc(CN2CC[C@H](NS(=O)(=O)c3ccc4ccc(N)nc4c3)C2=O)c1`, the Ki is 240 nM at Coagulation factor X [4], more than 4000 nM at Prothrombin and more than 2900 nM on Serine protease 1.

As to `COc1ccc2ccc(S(=O)(=O)N[C@H]3CCN(Cc4cc(C(=N)N)ccc4O)C3=O)cc2c1`, the Ki in experiment [1] came out at 1070 nM; in experiment [2], 1970 nM; on Serine protease 1, 305 nM; at Plasminogen, 2350 nM.

As for `N=C(N)c1cccc(CN2CC[C@H](NS(=O)(=O)c3ccc4nc(N)ccc4c3)C2=O)c1`, the inhibition constant (Ki) on Prothrombin is more than 4000 nM; at Serine protease 1, more than 2900 nM; at Coagulation factor X [3], 160 nM.

For the molecule `N=C(N)c1cccc(CN2CC[C@H](NS(=O)(=O)c3ccc4cc(Cl)c(Cl)cc4c3)C2=O)c1`, the Ki on Coagulation factor X [4] is approximately 75 nM.

`N=C(N)c1ccc(O)c(CN2CC[C@H](NS(=O)(=O)c3cc4ccncc4s3)C2=O)c1`: the inhibition constant Ki was 2 nM on Coagulation factor X [4]; more than 8700 nM in experiment [1]; 2000 nM on Prothrombin; 18000 nM in experiment [2]; more than 2900 nM on Serine protease 1; 6200 nM on Plasminogen. The IC50 in experiment [5] turned out to be 11 nM.

Turning to `CCOc1ccc2cc(S(=O)(=O)N[C@H]3CCN(Cc4cccc(C(=N)N)c4)C3=O)ccc2n1`, the Ki is more than 4000 nM at Prothrombin, more than 2900 nM on Serine protease 1 and more than 1200 nM at Coagulation factor X [3].

With `N=C(N)c1cccc(CN2CC[C@H](NS(=O)(=O)c3cc4nc(Cl)ccc4s3)C2=O)c1`, the Ki is more than 8700 nM in experiment [1]; 3100 nM at Prothrombin; more than 18000 nM in experiment [2]; more than 2900 nM on Serine protease 1; 31 nM on Coagulation factor X [3]; 5800 nM at Plasminogen.

Turning to `COc1ccc2ccc(S(=O)(=O)N[C@H]3CCN(Cc4cccc(C(=N)N)c4)C3=O)cc2n1`, the Ki was 480 nM on Coagulation factor X [4], more than 4000 nM at Prothrombin and more than 2900 nM at Serine protease 1.

In the case of `N=C(N)c1cccc(CN2CC[C@H](NS(=O)(=O)c3cc4cccnc4s3)C2=O)c1`, the Ki at Prothrombin was more than 4000 nM; on Serine protease 1 it was 2900 nM; on Coagulation factor X [3], 88 nM.

`N=C(N)c1ccc(O)c(CN2CC[C@H](NS(=O)(=O)c3cc4nc(Cl)ccc4s3)C2=O)c1`: the inhibitory constant (Ki) was found to be 2700 nM in experiment [1]; 920 nM at Prothrombin; 11000 nM in experiment [2]; 1600 nM at Serine protease 1; 1.5 nM on Coagulation factor X [3]; 3600 nM at Plasminogen.

For `N=C(N)c1cccc(CN2CC[C@H](NS(=O)(=O)c3ccc4ccncc4c3)C2=O)c1`, the values for the Ki at Coagulation factor X [4], on Prothrombin and at Serine protease 1 were 510 nM, more than 4000 nM and more than 2900 nM, respectively.

`N=C(N)c1cccc(CN2CC[C@H](NS(=O)(=O)c3cc4ncccc4s3)C2=O)c1`: the Ki in experiment [1] is more than 8700 nM; on Prothrombin, more than 4000 nM; in experiment [2] it was 12000 nM; at Serine protease 1, more than 2900 nM; at Coagulation factor X [3] it was 26 nM; at Plasminogen, more than 7300 nM.

Consider `N=C(N)c1cccc(CN2CC[C@H](NS(=O)(=O)c3ccc4cnccc4c3)C2=O)c1`, for which the Ki at Coagulation factor X [4] was 380 nM; at Prothrombin, more than 4000 nM; on Serine protease 1, more than 2900 nM.

Consider `N=C(N)c1ccc(O)c(CN2CC[C@H](NS(=O)(=O)c3cc4ccnc(Cl)c4s3)C2=O)c1`, for which the Ki is 7500 nM in experiment [1]; 2600 nM at Prothrombin; 5500 nM in experiment [2]; more than 2900 nM at Serine protease 1; 5 nM on Coagulation factor X [3]; 7300 nM at Plasminogen.

Consider `N=C(N)c1cccc(CN2CC[C@H](NS(=O)(=O)c3cc4c(Cl)nccc4s3)C2=O)c1`, for which the Ki at Prothrombin was more than 4000 nM; on Serine protease 1 it was more than 2900 nM; on Coagulation factor X [3] it was 39 nM.

Consider `N=C(N)c1ccc(N)c(CN2CC[C@H](NS(=O)(=O)c3cc4nc(Cl)ccc4s3)C2=O)c1`, for which the Ki in experiment [1] is more than 8700 nM; on Prothrombin, 1100 nM; in experiment [2], 4200 nM; at Serine protease 1, 1800 nM; at Coagulation factor X [3], 3 nM; at Plasminogen, 1500 nM.

Turning to `N=C(N)c1cccc(CN2CC[C@H](NS(=O)(=O)c3ccc4nc(Cl)ccc4c3)C2=O)c1`, the Ki at Prothrombin was more than 4000 nM; at Serine protease 1 it was more than 2900 nM; at Coagulation factor X [3], 110 nM.

On to `N=C(N)c1cccc(CN2CC[C@H](NS(=O)(=O)c3ccc4ccnc(N)c4c3)C2=O)c1`, for which the values for the Ki at Coagulation factor X [4], at Prothrombin and at Serine protease 1 were 490 nM, more than 4000 nM and more than 2900 nM, respectively.

Take `N=C(N)c1cccc(CN2CC[C@H](NS(=O)(=O)c3ccc4ccc(Cl)nc4c3)C2=O)c1`: the results for the Ki on Coagulation factor X [4], on Prothrombin and at Serine protease 1 were 720 nM, more than 4000 nM and more than 2900 nM, respectively.

For `COc1ccc2sc(S(=O)(=O)N[C@H]3CCN(Cc4cc(C(=N)N)ccc4N)C3=O)cc2n1`, the Ki is more than 8700 nM in experiment [1]; 210 nM at Prothrombin; 9500 nM in experiment [2]; 860 nM at Serine protease 1; 5 nM on Coagulation factor X [3]; more than 7300 nM at Plasminogen.

For the molecule `N=C(N)c1ccc(O)c(CN2CC[C@H](NS(=O)(=O)c3cc4ncccc4s3)C2=O)c1`, the inhibitory constant (Ki) in experiment [1] turned out to be 360 nM; on Prothrombin, 4000 nM; in experiment [2], 5200 nM; at Serine protease 1, 1000 nM; on Coagulation factor X [3], 0.7 nM; at Plasminogen, 2300 nM.

In the case of `N=C(N)c1ccc(O)c(CN2CC[C@H](NS(=O)(=O)c3cc4c(Cl)nccc4s3)C2=O)c1`, the Ki in experiment [1] was 8700 nM; on Prothrombin it was 4000 nM; in experiment [2] it was 8000 nM; on Serine protease 1, more than 2900 nM; at Coagulation factor X [3], 2 nM; at Plasminogen, 4500 nM.

Turning to `N=C(N)c1cccc(CN2CC[C@H](NS(=O)(=O)c3cc4ccc(Cl)nc4s3)C2=O)c1`, the Ki on Coagulation factor X [4] is 120 nM; at Prothrombin it was more than 4000 nM; at Serine protease 1, more than 2900 nM.

As to `N=C(N)c1cccc(CN2CC[C@H](NS(=O)(=O)c3ccc4ncccc4c3)C2=O)c1`, the Ki at Prothrombin was more than 4000 nM; at Serine protease 1 it was more than 2900 nM; at Coagulation factor X [3] it was 200 nM.

At Coagulation factor X [4], `Cc1c(S(=O)(=O)N[C@H]2CCN(Cc3cccc(C(=N)N)c3)C2=O)sc2ccc(Cl)cc12` gave a Ki of 36 nM.

The Ki is the dissociation constant of the complex between target and ligand, obtained from inhibition or displacement. A higher Ki goes with a looser hold on the target. Usually IC50 stands for the concentration that gives 50% inhibition. A lower IC50 goes with greater potency.

Source of the values: ChEMBL document CHEMBL1131988, “Synthesis, SAR and in vivo activity of novel thienopyridine sulfonamide pyrrolidinones as factor Xa inhibitors” (Bioorg Med Chem Lett, 1999).
